By Ki is commonly meant the dissociation constant of the complex between target and ligand, obtained from inhibition or displacement. A high value points to a looser hold on the target.

The target in this test is T1, Human NPY Y5 receptors (Homo sapiens, UniProt Q15761).
T1 construct: expressed in transfected cells; host or cells: CHO cells (membrane protein)
T1 sequence (Q15761 1-445): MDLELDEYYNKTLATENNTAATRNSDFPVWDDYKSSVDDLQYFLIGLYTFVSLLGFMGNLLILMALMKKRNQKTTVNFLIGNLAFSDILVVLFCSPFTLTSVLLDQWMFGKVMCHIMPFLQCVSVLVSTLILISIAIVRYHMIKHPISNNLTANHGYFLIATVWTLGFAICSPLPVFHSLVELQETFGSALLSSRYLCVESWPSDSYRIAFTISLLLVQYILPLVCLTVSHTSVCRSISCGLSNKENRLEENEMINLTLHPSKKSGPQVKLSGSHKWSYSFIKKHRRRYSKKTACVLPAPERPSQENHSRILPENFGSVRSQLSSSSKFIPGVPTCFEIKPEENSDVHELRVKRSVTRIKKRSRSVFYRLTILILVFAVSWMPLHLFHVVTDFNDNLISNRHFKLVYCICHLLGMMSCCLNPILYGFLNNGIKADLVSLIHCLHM
Briefly: NPY Receptor Binding Assay. To be noted: binding affinity at the human neuropeptide Y Y5 receptor subtype (hY5), expressed in CHO cells, 125I-peptide YY. The procedure: NPY Receptor Binding Assay
Human NPY Y5 receptors were expressed in CHO cells. Binding assays were performed in 50 mM HEPES, pH 7.2, 2.5 mM CaCl2, 1 mM MgCl2 and 0.1% BSA containing 5–10 μg of membrane protein and 0.1 nM […] in a total volume of 200 μl. Non-specific binding was determined in the presence of 1 μM NPY. The reaction mixtures were incubated for 90 minutes at room temperature then filtered through Millipore MAFC glass fiber filter plates which had been pre-soaked in 0.5% polyethleneimine. The filters were washed with phosphate-buffered saline, and radioactivity was measured in a Packard TopCount scintillation counter.
With `CN(C(=O)Nc1cnn(-c2cc(F)cc(F)c2)c1)C1CCN(S(C)(=O)=O)CC1`, the Ki is 2.4 nM.
The value for `CN(C(=O)Nc1cnn(-c2cc(F)cc(F)c2)c1)C1CCN(C(=O)OC(C)(C)C)CC1` was 1.8 nM; that for `CN(C(=O)Nc1cnn(-c2cc(F)cc(F)c2)c1)C1CCNCC1` was 276 nM; that for `CC(=O)N1CCC(N(C)C(=O)Nc2cnn(-c3cc(F)cc(F)c3)c2)CC1` was 1.6 nM.
Next, `CCC(=O)N1CCC(N(C)C(=O)Nc2cnn(-c3cc(F)cc(F)c3)c2)CC1`: 0.96 nM.
In turn, `CN(C(=O)Nc1cnn(-c2cc(F)cc(F)c2)c1)C1CCN(C(=O)C2CC2)CC1` displayed a Ki of 1.2 nM.
In turn, `CC(C)C(=O)N1CCC(N(C)C(=O)Nc2cnn(-c3cc(F)cc(F)c3)c2)CC1` came in with a Ki of 0.7 nM.
The value for `CCS(=O)(=O)N1CCC(N(C)C(=O)Nc2cnn(-c3cc(F)cc(F)c3)c2)CC1` was 0.89 nM.
Take `CC(C)S(=O)(=O)N1CCC(N(C)C(=O)Nc2cnn(-c3cc(F)cc(F)c3)c2)CC1`: affinity was put at a Ki of 1.7 nM.
